Measurements: ChEMBL document CHEMBL1201862, “PubChem BioAssay data set” (2004)
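Each compound was tested at five concentrations against cells in 96-well plates for 48 hours. At the GI50, growth is halved.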 Activity calls are given as the source filed them. Rule as the data show it: active = GI50 up to about 1.1 µM and inactive = higher.

Key:
Assay in all cases: NCI anticancer screen, dose series, 48 h
[1] = test system: ACHN
[2] = test system: CAKI-1
[3] = test system: HCT-116
[4] = test system: HL-60
[5] = test system: Hs-578T
[6] = test system: IGROV-1
[7] = test system: KM12
[8] = test system: NCI-H460
[9] = test system: NCI/ADR-RES
[10] = test system: RPMI-8226
[11] = test system: RXF 393
[12] = test system: SF-539
[13] = test system: SK-MEL-5
[14] = test system: SK-OV-3
[15] = test system: SN12C
[16] = test system: U-251
[17] = test system: BT-549
[18] = test system: HOP-92
[19] = test system: T47D

Row | Structure (SMILES) | GI50 [1] | GI50 [2] | GI50 [3] | GI50 [4] | GI50 [5] | GI50 [6] | GI50 [7] | GI50 [8] | GI50 [9] | GI50 [10] | GI50 [11] | GI50 [12] | GI50 [13] | GI50 [14] | GI50 [15] | GI50 [16] | GI50 [17] | GI50 [18] | GI50 [19]
1 | O=[N+]([O-])c1ccc(/C=C/c2cc(-c3ccccc3)nc3ccc4ccccc4c23)cc1 | > 100 µM (inactive) | > 100 µM (inactive) | > 100 µM (inactive) | > 100 µM (inactive) | > 100 µM (inactive) | > 100 µM (inactive) | > 100 µM (inactive) | > 100 µM (inactive) | > 100 µM (inactive) | > 100 µM (inactive) | > 100 µM (inactive) | > 100 µM (inactive) | > 100 µM (inactive) | > 100 µM (inactive) | > 100 µM (inactive) | > 100 µM (inactive) |  |  | 
2 | N[C@H]1CCN(c2c(F)cc3c(=O)c(C(=O)O)cn4c3c2Oc2cc3c(ccc5ccccc53)cc2-4)C1 | 2.32 µM (inactive) | 3.6 µM (inactive) | 2.87 µM (inactive) | 3.79 µM (inactive) |  | 2.59 µM (inactive) | 3.49 µM (inactive) | 1.94 µM (inactive) | 8.17 µM (inactive) | 1.58 µM (inactive) | 6.41 µM (inactive) | 1.7 µM (inactive) | 1.87 µM (inactive) | 5.61 µM (inactive) | 3.23 µM (inactive) | 1.39 µM (inactive) | 6.46 µM (inactive) | 2.59 µM (inactive) | 
3 | CN1C(=O)C2(Cc3cn(C45CC67SSC(CO)(C(=O)N6C4Nc4ccccc45)N(C)C7=O)c4ccccc34)SSC1(CO)C(=O)N2C (configuration not stated) | < 0.01 µM (active) | < 0.01 µM (active) | 0.0113 µM (active) | 0.013 µM (active) | 0.0282 µM (active) | 0.0165 µM (active) | 0.139 µM (active) | 0.218 µM (active) | 0.0197 µM (active) | 0.0139 µM (active) |  | 0.011 µM (active) | 0.1 µM (active) | 0.262 µM (active) | 0.0147 µM (active) | 0.0369 µM (active) |  | 0.053 µM (active) | < 0.01 µM (active)
4 | Cc1nc2cccc(F)c2c(=O)n1-c1nnc(C2CC2)s1 | > 10 µM (inactive) | > 10 µM (inactive) | > 10 µM (inactive) | > 10 µM (inactive) | > 10 µM (inactive) | > 10 µM (inactive) | > 10 µM (inactive) | > 10 µM (inactive) | > 10 µM (inactive) | > 10 µM (inactive) | > 10 µM (inactive) | > 10 µM (inactive) | > 10 µM (inactive) | > 10 µM (inactive) | > 10 µM (inactive) | > 10 µM (inactive) |  | > 10 µM (inactive) | > 10 µM (inactive)
5 | O=C1CN(c2cccc(Cl)c2)C(=O)CN1NCNN1CC(=O)N(c2cccc(Cl)c2)CC1=O | > 100 µM (inactive) | > 100 µM (inactive) | > 100 µM (inactive) | > 100 µM (inactive) | > 100 µM (inactive) | > 100 µM (inactive) | > 100 µM (inactive) | > 100 µM (inactive) |  | > 100 µM (inactive) | > 100 µM (inactive) | > 100 µM (inactive) | > 100 µM (inactive) | > 100 µM (inactive) | > 100 µM (inactive) | > 100 µM (inactive) | > 100 µM (inactive) | > 100 µM (inactive) | 
6 | Fc1ccc(NCn2nc(COc3ccccc3Cl)n(/N=C/c3ccc(-c4ccc(Cl)cc4Cl)o3)c2=S)cc1Cl | 29.5 µM (inactive) | 34.4 µM (inactive) | 28.4 µM (inactive) | 15.8 µM (inactive) | 82.6 µM (inactive) | 29.2 µM (inactive) | 26 µM (inactive) | 32.7 µM (inactive) | 43.5 µM (inactive) | 22.3 µM (inactive) | 21.5 µM (inactive) | 31.3 µM (inactive) | 7.62 µM (inactive) | 46.6 µM (inactive) |  | 25.8 µM (inactive) |  |  | 27.7 µM (inactive)
7 | O=c1n(-c2ccccc2)c(=O)n2n1C1C=CC2C2C(C1)C2(Cl)Cl (configuration not stated) | > 100 µM (inactive) | > 100 µM (inactive) | > 100 µM (inactive) | > 100 µM (inactive) |  | > 100 µM (inactive) | > 100 µM (inactive) | > 100 µM (inactive) |  |  | > 100 µM (inactive) | > 100 µM (inactive) | > 100 µM (inactive) | > 100 µM (inactive) | > 100 µM (inactive) | > 100 µM (inactive) |  |  | 
8 | Cc1ccc(NC(=O)CSC(N)=O)cc1C | > 100 µM (inactive) | > 100 µM (inactive) | > 100 µM (inactive) | > 100 µM (inactive) | > 100 µM (inactive) | > 100 µM (inactive) | > 100 µM (inactive) | > 100 µM (inactive) | > 100 µM (inactive) | 29.3 µM (inactive) | > 100 µM (inactive) | 43.4 µM (inactive) | > 100 µM (inactive) |  | > 100 µM (inactive) | > 100 µM (inactive) |  | > 100 µM (inactive) | > 100 µM (inactive)
9 | CCN(CC)CCNc1ccc2ncn3c4cc(O)ccc4c(=O)c1c23 | 1.61 µM (inactive) | 3.05 µM (inactive) | 1.57 µM (inactive) | 2.84 µM (inactive) |  | 4.25 µM (inactive) | 4.61 µM (inactive) | 3.04 µM (inactive) |  | 2.17 µM (inactive) | 0.536 µM (active) | 3.25 µM (inactive) | 3.66 µM (inactive) | 9.62 µM (inactive) | 3.11 µM (inactive) | 1.53 µM (inactive) |  | 0.519 µM (active) | 
10 | CC1C(=O)CC[C@@]2(C)C(=O)CCCC12O (some centres not stated) | > 100 µM (inactive) | > 100 µM (inactive) | > 100 µM (inactive) | > 100 µM (inactive) | > 100 µM (inactive) | > 100 µM (inactive) | > 100 µM (inactive) | > 100 µM (inactive) | > 100 µM (inactive) | > 100 µM (inactive) | > 100 µM (inactive) | > 100 µM (inactive) | > 100 µM (inactive) | > 100 µM (inactive) | > 100 µM (inactive) | > 100 µM (inactive) |  | > 100 µM (inactive) | > 100 µM (inactive)
11 | CC(=O)OCC1OC(n2c3c(c(-c4cccc5ccccc45)c(C#N)c2=S)CCCC3)C(OC(C)=O)C(OC(C)=O)C1OC(C)=O (configuration not stated) | > 100 µM (inactive) |  | > 100 µM (inactive) | > 100 µM (inactive) |  | > 100 µM (inactive) | > 100 µM (inactive) | > 100 µM (inactive) | > 100 µM (inactive) |  | > 100 µM (inactive) | > 100 µM (inactive) | > 100 µM (inactive) | > 100 µM (inactive) | > 100 µM (inactive) | > 100 µM (inactive) |  | 0.112 µM (active) | > 100 µM (inactive)
12 | O=C(CC1C(=O)Nc2ccccc2S1(=O)=O)Nc1cc(Cl)ccc1Cl (configuration not stated) | 17.2 µM (inactive) | 16.1 µM (inactive) | 14.4 µM (inactive) | 11.8 µM (inactive) |  | 13.1 µM (inactive) |  | 13.6 µM (inactive) |  | 2.87 µM (inactive) | 15.8 µM (inactive) | 2.4 µM (inactive) | 13.5 µM (inactive) |  | 15.6 µM (inactive) | 10 µM (inactive) |  | 14.2 µM (inactive) | 
13 | COc1cc(C2c3cc4c(cc3[C@@H](Nc3ccccc3)C3COC[C@H]23)OCO4)cc(OC)c1O (some centres not stated) | 0.483 µM (active) |  | 1.41 µM (inactive) | 0.573 µM (active) | 0.736 µM (active) | 8.34 µM (inactive) | 2.84 µM (inactive) | 0.148 µM (active) | 10.9 µM (inactive) | 0.631 µM (active) |  | 1.26 µM (inactive) | 2.3 µM (inactive) | 2.92 µM (inactive) | 1.9 µM (inactive) | 0.897 µM (active) |  |  | 1.19 µM (inactive)
14 | C=C1C(=O)C23C(CC(OC(C)=O)C1[C@@H]2OC(C)=O)C1(C)C(OC(C)=O)CCC(C)(C)C1C[C@@H]3OC(C)=O (some centres not stated) | 1.56 µM (inactive) | 0.653 µM (active) | 1.62 µM (inactive) | 0.0771 µM (active) |  | 1.45 µM (inactive) | 1.91 µM (inactive) | 1.61 µM (inactive) |  | 1.48 µM (inactive) | 0.237 µM (active) | 1.76 µM (inactive) | 1.84 µM (inactive) | 1.97 µM (inactive) | 1.46 µM (inactive) | 1.55 µM (inactive) |  | 0.167 µM (active) | 
15 | Nn1c(CCCCCCCCc2nnc(COc3ccc4ccccc4c3O)n2N)nnc1COc1ccc2ccccc2c1O | 31.3 µM (inactive) | 18.2 µM (inactive) | 9.75 µM (inactive) |  |  | 4.92 µM (inactive) | 18.7 µM (inactive) | 29 µM (inactive) | 17.5 µM (inactive) | 22.3 µM (inactive) | 26.1 µM (inactive) |  | 20.1 µM (inactive) | 44 µM (inactive) | 39.3 µM (inactive) | 41.4 µM (inactive) | 22.1 µM (inactive) | 17.3 µM (inactive) | 
16 | COc1cc2c(cc1OCCCN1C(=O)c3cccc4cccc(c34)C1=O)N=C[C@@H]1CCCN1C2=O | 25.7 µM (inactive) | 25.4 µM (inactive) | 36.1 µM (inactive) |  |  | 12.2 µM (inactive) | 16.3 µM (inactive) | 22.3 µM (inactive) | 41.8 µM (inactive) | 18.2 µM (inactive) | 14.9 µM (inactive) | 83.6 µM (inactive) | 20.4 µM (inactive) | > 100 µM (inactive) | 48.5 µM (inactive) | 39.5 µM (inactive) | 36.6 µM (inactive) | 22.2 µM (inactive) | 19.5 µM (inactive)
17 | COc1ccc(-c2coc3cc(OC)cc(O)c3c2=O)cc1 [4',7-DIMETHOXY-5-HYDROXYGENISTEIN] | 34.4 µM (inactive) | > 100 µM (inactive) | > 100 µM (inactive) | > 100 µM (inactive) | 31.1 µM (inactive) | > 100 µM (inactive) | > 100 µM (inactive) | > 100 µM (inactive) | > 100 µM (inactive) | > 100 µM (inactive) | 27.9 µM (inactive) | 78.3 µM (inactive) | > 100 µM (inactive) | > 100 µM (inactive) | > 100 µM (inactive) | 43.3 µM (inactive) |  | 7.41 µM (inactive) | > 100 µM (inactive)
